Measured values from ChEMBL document CHEMBL1146237, “Antineoplastic agents. 561. Total synthesis of respirantin” (2007).
≈ marks a conversion by molar mass, not a printed value.

Assays:
[1] = tested on: P388; assay: Growth inhibition of mouse P388 cells; assay type: functional
[2] = tested on: MCF7; assay: Growth inhibition of human MCF7 cells; assay type: functional

| SMILES | GI50 [1] [µg/mL] | GI50 [2] [µg/mL] |
| --- | --- | --- |
| CCC(C)[C@@H]1OC(=O)[C@H](C)OC(=O)[C@@H](NC(=O)c2cccc(NC=O)c2O)[C@@H](C)OC(=O)[C@H](C(C)C)OC(=O)C(C)(C)C(=O)[C@H](CC(C)C)NC1=O (some centres undefined) | 0.033 (≈ 0.045 µM) | 0.00062 (≈ 0.000845 µM) |
| CCC(C)[C@@H]1OC(=O)[C@H](C)OC(=O)[C@@H](NC(=O)c2cccc(N)c2O)[C@@H](C)OC(=O)[C@H](CC(C)C)OC(=O)C(C)(C)C(=O)[C@H](CC(C)C)NC1=O (some centres undefined) [KITASTATIN] | 0.045 (≈ 0.0625 µM) | – |
| CCC(C)[C@@H]1OC(=O)[C@H](C)OC(=O)[C@@H](NC(=O)c2cccc(NC=O)c2O)[C@@H](C)OC(=O)[C@H](CC(C)C)OC(=O)C(C)(C)C(=O)[C@H](CC(C)C)NC1=O (some centres undefined) [RESPIRANTIN] | 0.0037 (≈ 0.00495 µM) | – |
